Assay in all cases: NCI-60 cell line screen, 48 h
The subject of experiment [1] is HL-60(TB) leukemia.
Experiment [2] has as its system HT29 colon.
The subject of experiment [3] is CCRF-CEM leukemia.
Experiment [4] deals with UACC-257 melanoma.
Experiment [5] has as its system SNB-75 CNS.
The subject of experiment [6] is NCI-H226 lung.
Experiment [7] relates to T-47D breast.
Experiment [8] relates to SK-MEL-2 melanoma.
The subject of experiment [9] is PC-3 prostate.
The subject of experiment [10] is OVCAR-5 ovarian.

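Assay format: 96-well plates, 48-hour exposure. GI50: concentration for 50% inhibition of growth. TGI denotes the concentration required for complete inhibition of growth.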

Take `O=c1cc(-c2ccccc2)nc2cc(-c3ccco3)[nH]n12`: the GI50 in experiment [1] was 11.1 µM; in [2], 4.22 µM; in experiment [3], 16.3 µM; in experiment [4] it was 17.3 µM; in experiment [5], 12.5 µM; in [6], 47.9 µM. The GI50 is 4.44 µM in [7], 6.53 µM in experiment [8], 15 µM in [9] and 42.2 µM in [10]. Also, the TGI in experiment [1], in experiment [2], in experiment [3], in experiment [4], in [5] and in experiment [6] was greater than 100 µM each time. The TGI in experiment [7] is greater than 100 µM; in [8] it was 54.2 µM; in experiment [9], greater than 100 µM; in experiment [10], greater than 100 µM.
